In patent publication US10350271B2, “Lipidated peptides for lowering blood glucose” (USTAV ORGANICKE CHEMIE A BIOCHEMIE AKADEMIE VED CR, V.V.I., priority 2014, dated 2019):
Square brackets hold non-standard residues; d marks the D form. Ends that are not written are not given here. Peptide text beside a SMILES is read from it. * marks the point of attachment. Palmitoyl = CCCCCCCCCCCCCCCC(=O)*; Myristoyl = CCCCCCCCCCCCCC(=O)*; Nle = CCCC[C@H](N)C(=O)O

Legend:
C57BL/6 mice = assay: Food intake in fasted mice after SC injection; assay type: in vivo; conditions: for Effect on food intake in mice: SC; for Food intake in mice % of saline-treated group: 5 mg/kg SC, 45 min after injection
Experimental: NMRI mice, C57BL/6 mice, and Wistar rats (AnLab, Prague, Czech Republic) were housed in a temperature of 23° C. and a daily cycle of 12 h light and dark (light from 6:00). They were given ad libitum water and a standard chow diet that contained 25, 9 and 66% of calories of protein, fat and carbohydrate respectively. Energy content of the feed was 3.4 kcal/g (St-1, Mlýn Kocanda, Czech Republic). Db/db mice and their controls (C57BL/6 background) were obtained from Taconic (Denmark), housed under the same conditions as described above, and fed by Altromin (Taconic, Denmark). ZDF-Lepr^fa/Crl, diabetic fa/fa male rats were obtained from Charles River (France), housed under same conditions as described above, and fed with a Purina 5008 diet (IPS Product Supplies Limited, UK). All experiments followed the ethical guidelines for animal experiments and the law of the Czech Republic Nr. 246/1992.
In experiments with C57BL/6 mice or Wistar rats, food intake was measured with overnight fasted animals in individual cages. Food was withdrawn 17 hours prior to injection of lipidated analog of prolactin releasing peptide (PrRP); free access to water was maintained. The administration of either saline, PrRP, or lipidated analogs was performed by SC injection at doses of 1-10 mg/kg (which corresponded to a volume of 0.2 ml/mouse and 0.1 ml/100 g weight of rat). Fifteen minutes after the lipidated analog of prolactin releasing peptide (PrRP) administration, the mice were given pre-weighed food. The food was then weighed every 30 minutes for 5-10 hours. The administration of each dose was performed at least twice, and each group of mice consisted of at least 6 mice.

rat PrRP receptor = target: T1, rat PrRP receptor (Rattus norvegicus, UniProt Q64121); assay: Competitive binding in RC-4B/C rat pituitary cells (125I-rat PrRP31); conditions: for Binding affinity / Ki: RC-4B/C cells; for Binding affinity: statements referring to Table 2; for % of PrRP31, RC-4B/C rat pituitary cells: affinity relative to PrRP31; for Ki: displacement of 125I-rat PrRP31, read-out: Ki, RC-4B/C rat pituitary cells ^25I-rat PrRP31
T1 construct: host or cells: RC-4B/C rat pituitary cell line
T1 sequence (Q64121 1-370): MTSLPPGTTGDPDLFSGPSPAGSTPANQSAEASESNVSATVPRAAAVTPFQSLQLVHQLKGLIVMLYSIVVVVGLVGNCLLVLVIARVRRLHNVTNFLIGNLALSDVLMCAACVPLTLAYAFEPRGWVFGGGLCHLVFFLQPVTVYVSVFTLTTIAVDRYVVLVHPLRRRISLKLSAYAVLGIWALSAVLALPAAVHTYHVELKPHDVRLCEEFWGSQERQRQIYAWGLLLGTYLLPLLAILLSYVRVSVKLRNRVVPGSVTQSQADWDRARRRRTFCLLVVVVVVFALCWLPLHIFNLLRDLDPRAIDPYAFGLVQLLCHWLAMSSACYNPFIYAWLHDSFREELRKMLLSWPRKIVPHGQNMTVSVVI
In short: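 Displacement of rat 125I-PrRP31 ([…]) by test analogs, 10^−11–10^−4 mol·l^−1, on whole RC-4B/C cells, 60 min RT. Bound counts measured by γ-counter in duplicate, ≥3 repeats, analyzed by nonlinear one-site binding regression.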

Compound	Effect on food intake in mice (C57BL/6 mice)	Binding affinity (rat PrRP receptor)	Food intake in mice % of saline-treated group (C57BL/6 mice) [%]	% of PrRP31, RC-4B/C rat pituitary cells (rat PrRP receptor) [%]	Ki (rat PrRP receptor) [nM]
CCCC[C@H](NC(=O)CNC(=O)[C@H](CCCNC(=N)N)NC(=O)[C@@H]1CCCN1C(=O)[C@H](Cc1ccc(O)cc1)NC(=O)[C@H](Cc1c[nH]c2ccccc12)NC(=O)[C@H](Cc1c[nH]cn1)NC(=O)[C@@H](NC(=O)[C@H](CC(=O)O)NC(=O)[C@H](C)NC(=O)[C@@H]1CCCN1C(=O)[C@H](CCCNC(=N)N)NC(=O)[C@H](CCC(N)=O)NC(=O)[C@H](Cc1c[nH]cn1)NC(=O)[C@@H](N)CO)[C@@H](C)O)C(=O)N[C@@H](Cc1ccccc1)C(=O)N1CCC[C@H]1C(=O)N[C@H](C(=O)N[C@H](C(=O)NCC(=O)N[C@@H](CCCNC(=N)N)C(=O)N[C@H](C(=O)N[C@H](C(=O)N[C@@H](C)C(=O)N[C@@H](CCCNC(=N)N)C(=O)N[C@@H](CC(N)=O)C(=O)NCC(=O)N[C@@H](CCC(=O)O)C(=O)N[C@H](C(=O)N[C@@H](CO)C(=O)N[C@@H](CCCNC(=N)N)C(N)=O)C(C)C)[C@@H](C)O)[C@@H](C)CC)[C@@H](C)CC)[C@@H](C)O [Analog 19] (H-SHQRPADTHWYPRG[Nle]FPTIGRITARNGEVSR-NH2)	no effect	very low binding affinity			
CCCCCCCCCCCCCC(=O)N[C@@H](CO)C(=O)N[C@@H](Cc1c[nH]cn1)C(=O)N[C@@H](CCC(N)=O)C(=O)N[C@@H](CCCNC(=N)N)C(=O)N1CCC[C@H]1C(=O)N[C@@H](C)C(=O)N[C@@H](CC(=O)O)C(=O)N[C@H](C(=O)N[C@@H](Cc1c[nH]cn1)C(=O)N[C@@H](Cc1c[nH]c2ccccc12)C(=O)N[C@@H](Cc1ccc(O)cc1)C(=O)N1CCC[C@H]1C(=O)N[C@@H](CCCNC(=N)N)C(=O)NCC(=O)N[C@@H](CCCC)C(=O)N[C@@H](Cc1ccccc1)C(=O)N1CCC[C@H]1C(=O)N[C@H](C(=O)N[C@H](C(=O)NCC(=O)N[C@@H](CCCNC(=N)N)C(=O)N[C@H](C(=O)N[C@H](C(=O)N[C@@H](C)C(=O)N[C@@H](CCCNC(=N)N)C(=O)N[C@@H](CC(N)=O)C(=O)NCC(=O)N[C@@H](CCC(=O)O)C(=O)N[C@H](C(=O)N[C@@H](CO)C(=O)N[C@@H](CCCNC(=N)N)C(N)=O)C(C)C)[C@@H](C)O)[C@@H](C)CC)[C@@H](C)CC)[C@@H](C)O)[C@@H](C)O [Analog 20] (Myristoyl-SHQRPADTHWYPRG[Nle]FPTIGRITARNGEVSR-NH2)	no effect	very low binding affinity			
CCCCCCCCCCCCCC(=O)N[C@H](Cc1ccccc1)C(=O)N[C@H](CCCNC(=N)N)C(=O)NCC(=O)N[C@H](C(=O)N1CCC[C@H]1C(=O)N[C@@H](CCCNC(=N)N)C(=O)N[C@H](C(=O)NCC(=O)N[C@@H](CCCNC(=N)N)C(=O)NCC(=O)N[C@H](C(=O)N[C@@H](Cc1ccc(O)cc1)C(=O)N[C@@H](Cc1c[nH]c2ccccc12)C(=O)N[C@@H](C)C(=O)N1CCC[C@H]1C(=O)N[C@@H](CC(N)=O)C(=O)N[C@H](C(=O)N[C@@H](CC(=O)O)C(=O)N1CCC[C@H]1C(=O)N[C@H](C(N)=O)[C@@H](C)O)[C@@H](C)CC)[C@@H](C)O)[C@@H](C)CC)C(C)C [Analog 26] (Myristoyl-[dF][dR]GVPRIGRGTYWAPNIDPT-NH2)	no effect	very low binding affinity	100	1.4	
CCCCCCCCCCCCCC(=O)N[C@@H](CO)C(=O)N[C@@H](CCCNC(=N)N)C(=O)N[C@@H](C)C(=O)N[C@@H](Cc1c[nH]cn1)C(=O)N[C@@H](CCC(N)=O)C(=O)N[C@@H](Cc1c[nH]cn1)C(=O)N[C@@H](CO)C(=O)N[C@@H](CCSC)C(=O)N[C@@H](CCC(=O)O)C(=O)N[C@H](C(=O)N[C@@H](CCCNC(=N)N)C(=O)N[C@H](C(=O)N1CCC[C@H]1C(=O)N[C@@H](CC(=O)O)C(=O)N[C@H](C(=O)N[C@@H](CC(N)=O)C(=O)N1CCC[C@H]1C(=O)N[C@@H](C)C(=O)N[C@@H](Cc1c[nH]c2ccccc12)C(=O)N[C@@H](Cc1ccc(O)cc1)C(=O)N[C@H](C(=O)NCC(=O)N[C@@H](CCCNC(=N)N)C(=O)NCC(=O)N[C@H](C(=O)N[C@@H](CCCNC(=N)N)C(=O)N1CCC[C@H]1C(=O)N[C@H](C(=O)NCC(=O)N[C@@H](CCCNC(=N)N)C(=O)N[C@@H](Cc1ccccc1)C(N)=O)C(C)C)[C@@H](C)CC)[C@@H](C)O)[C@@H](C)CC)[C@@H](C)O)[C@@H](C)O [Analog 46] (Myristoyl-SRAHQHSMETRTPDINPAWYTGRGIRPVGRF-NH2)			20	657	
CCCCCCCCCCCCCCCC(=O)N[C@@H](CO)C(=O)N[C@@H](CCCNC(=N)N)C(=O)N[C@@H](C)C(=O)N[C@@H](Cc1c[nH]cn1)C(=O)N[C@@H](CCC(N)=O)C(=O)N[C@@H](Cc1c[nH]cn1)C(=O)N[C@@H](CO)C(=O)N[C@@H](CCSC)C(=O)N[C@@H](CCC(=O)O)C(=O)N[C@H](C(=O)N[C@@H](CCCNC(=N)N)C(=O)N[C@H](C(=O)N1CCC[C@H]1C(=O)N[C@@H](CC(=O)O)C(=O)N[C@H](C(=O)N[C@@H](CC(N)=O)C(=O)N1CCC[C@H]1C(=O)N[C@@H](C)C(=O)N[C@@H](Cc1c[nH]c2ccccc12)C(=O)N[C@@H](Cc1ccc(O)cc1)C(=O)N[C@H](C(=O)NCC(=O)N[C@@H](CCCNC(=N)N)C(=O)NCC(=O)N[C@H](C(=O)N[C@@H](CCCNC(=N)N)C(=O)N1CCC[C@H]1C(=O)N[C@H](C(=O)NCC(=O)N[C@@H](CCCNC(=N)N)C(=O)N[C@@H](Cc1ccccc1)C(N)=O)C(C)C)[C@@H](C)CC)[C@@H](C)O)[C@@H](C)CC)[C@@H](C)O)[C@@H](C)O [Analog 47] (Palmitoyl-SRAHQHSMETRTPDINPAWYTGRGIRPVGRF-NH2)			2	1202	
CC[C@H](C)[C@H](NC(=O)CNC(=O)[C@H](CCCNC(=N)N)NC(=O)[C@H](CO)NC(=O)[C@H](C)NC(=O)[C@H](Cc1ccc(O)cc1)NC(=O)[C@H](Cc1c[nH]c2ccccc12)NC(=O)[C@H](C)NC(=O)[C@@H]1CCCN1C(=O)[C@H](CC(N)=O)NC(=O)[C@@H](NC(=O)[C@H](CC(=O)O)NC(=O)[C@@H]1CCCN1C(=O)[C@@H](NC(=O)[C@H](CCCNC(=N)N)NC(=O)[C@@H](NC(=O)[C@H](CCC(=O)O)NC(=O)[C@H](CCSC)NC(=O)[C@H](CO)NC(=O)[C@H](Cc1c[nH]cn1)NC(=O)[C@H](CCCNC(=N)N)NC(=O)[C@H](Cc1c[nH]cn1)NC(=O)[C@@H](NC(=O)[C@H](CCCNC(=N)N)NC(=O)[C@@H](N)CO)[C@@H](C)O)[C@@H](C)CC)[C@@H](C)O)[C@@H](C)CC)C(=O)N[C@@H](CCCNC(=N)N)C(=O)N1CCC[C@H]1C(=O)N[C@H](C(=O)NCC(=O)N[C@@H](CCCNC(=N)N)C(=O)N[C@@H](Cc1ccccc1)C(N)=O)C(C)C [Human PrRP31, reference compound]			100	207	2.38 ± 0.19
TPDINPAWYASRGIRPVGRF-NH2 [Human PrRP20, reference compound]			100	277	1.78 ± 0.46
